This is an account of results in patent US6369003B1, “Process and composition for soil improvement by reducing microbially formed ethylene in the soil” (BASF Aktiengesellschaft, priority 1994, dated 2002).

Test [1] deals with pea varieties Sparkle and Rondo. The following applies: Lee and La Rue, cited from earlier work.
Test [2] concerns mutant EZ (Sym5) of peas. The following applies: severely reduced nodule formation of the mutant; Fearn and La Rue 1991; cited from earlier work.
Test [3] relates to parent strain Sparkle. The following applies: Fearn and La Rue 1991; cited from earlier work.
Test [4] deals with pea variety Sparkle. Conditions: nodule formation reduced by provision of light in the root area; Lee and La Rue; cited from earlier work.
Test [5] relates to Soybean plants (Delta Pine 415). The experiment in a line: Soybeans test 3c: root nodules and total N, greenhouse. Format: in vivo, Glycine max. The following applies: for Nodules: untreated 46. How it is done: In these tests various types of non-sterile soils were used. The cultivation of the plants was carried out under greenhouse or climatic chamber conditions. The active compounds according to the invention were applied uniformly distributed over the soil surface in an aqueous preparation after the emergence of the respective test plants. The supply of water for the plants was carrried out using the same technique, always paying attention to uniform moistness of the soil. In the case of the cultivation of legumes, defined amounts of species-specific Rhizobia were admixed to the soil. In some cases inoculation was also carried out by seed treatment.
a) Soybean plants (Delta Pine 415) were cultivated under greenhouse conditions in low N Limburgerhof soil in plastic pots (500 ml) and watered from above as required. A few days after emergence the plants were thinned out to 5 plants per pot.
In 8 pots in each case per test member an aqueous active compound solution of 2.3.1.3 was applied by watering. 16 pots remained untreated in each case.
c) Test procedure as in 3 a)

The test system of test [6] is white sweetclover. The following applies: 0.07 μl/l of ethylene gas/l of air; Lee and La Rue; cited from earlier work.
Test [7] deals with soybean plants. The following applies: even at distinctly higher ethylene administration; Lee and La Rue; cited from earlier work.
Where [8] appears, read: 0.030 mg of a.s./pot; procedure as in 3 a).
Setting [9] is: 0.300 mg of a.s./pot; procedure as in 3 a).

Read-outs that look alike come from different tables or passages of the source.

`O=S(=O)([O-])[O-].[Ag+].[Ag+]` [Ag2SO4]: the nodule formation entry in test [1] (peas (Sparkle), in the presence of ethylene) is on record as “normal nodule formation could be restored”; in test [2] it was “partially restored”; in test [4], “reverse the reduced nodule formation by light”. Further, the nodulation result in test [3] is recorded as “not affected”.

Regarding `O=[N+]([O-])[O-].O=[N+]([O-])[O-].[Co+2]` [Co(NO3)2], the nodule formation result in test [2] is reported as “partially restored”. Moreover, the nodulation result in test [3] is “not affected”.

`CCCCCCOC(=O)CON=C(C)C` [active compound 2.3.1.4]: the “Total N (shoots + root)” value in test [5] (setting [8]) was 103 % of control; in test [5] (setting [9]), 110 % of control. Further, the Nodules in test [5] (setting [8]) is reported as 55 number/pot; in test [5] (setting [9]), 66 number/pot.

As for `CC(C)OCOC(=O)CON=C1CCCCC1` [active compound 2.3.1.5], in test [5] (setting [8]), the “Total N (shoots + root)” value is recorded as 104 % of control and the Nodules was 70 number/pot. Moreover, in test [5] (setting [9]), the “Total N (shoots + root)” value is reported as 107 % of control and the Nodules is 61 number/pot.

As for `C=C` [ethylene], the nodule formation entry in test [1] (0.07 μl/l of ethylene gas/l of air) and in test [6] was “severe reduction in nodule formation” each time. For the same compound, in test [7], the nodulation result is “no significant effect on nodulation”.
